For experiment [1], the system named is REM sleep deprivation induced hyperalgesia. The experiment in a line: REM sleep deprivation induced hyperalgesia (modified flowerpot technique, hot plate method). Type of experiment: in vivo, Male albino Wistar rats. In general terms: In hot-plate and tail-flick tests a longer latency is read as antinociception.
From the text: The modified flowerpot technique was used to induce REM sleep deprivation. In this method, rats are placed on elevated platforms in a water tank for 96 hrs. During REM sleep muscle atonia occurs as a result of which when an animal enters REM sleep it falls from the platform into the water. Therefore the animal wakes up and climbs onto platform again. This method prevents REM sleep and permits other sleep stages.
The paws of rats are very sensitive to heat at temperatures which are not damaging to the skin. The responses shown by rats placed on a hot plate are jumping, withdrawal of the paws and licking of the paws. This test is thus used to assess the pain threshold and the animal's response to mild painful stimuli.
To induce sleep deprivation, an acrylic box (24 cm×18 cm×18 cm) with platforms of height 9 cm and 6 cm diameter was used. Water was filled, in the box upto a level of 1 cm below the platform. 6 animals were placed on each platform for 96 hrs. One platform was kept vacant to reduce immobilization stress. […] The responses of the animals to painful stimuli were observed (licking of paws, jumping, paw withdrawal) and the duration of time the animal could remain on the hot plate was recorded. […] One hour after application of the test substances, the animals were again subjected to the hot plate and the response was evaluated. […]
Experiment [2] relates to carrageenan induced paw oedema. The experiment can be described thus: Carrageenan induced paw oedema in rats (topical application, plethysmographic paw volume). The following applies: mean ± SD, n = 6; for Paw volume, carrageenan induced paw oedema: topical application 7 days + day 8; for Percentage change in carrageenan induced paw oedema (paw volume): ((Vt−Vo)/Vo)×100. (The carrageenan paw model is a standard test of acute inflammation.)

For the compound `O=C(O)Cc1ccccc1Nc1c(Cl)cccc1Cl` [Diclofenac], the “Increase in paw withdrawal time” value in experiment [1] (after minus before formulation, hot plate) was determined as 6.00. Further, the “Paw withdrawal time, before formulation” value in experiment [1] (hot plate 50±2° C. after 96 hrs REM sleep deprivation, before application of test substance, cut-off 60 seconds, mean ± SD, n = 6) was determined as 6.67 ± 3.33 s. In addition, the “Paw volume, carrageenan induced paw oedema” value is 0.23 ± 0.05 in experiment [2] (0 hr (immediately before carrageenan)), 0.67 ± 0.06 in experiment [2] (2 hr after carrageenan), 0.38 ± 0.05 in experiment [2] (5 hr after carrageenan) and 0.20 ± 0.05 in experiment [2] (24 hr after carrageenan). The “Percentage change in carrageenan induced paw oedema (paw volume)” value in experiment [2] (2 hr vs 0 hr) is given as 202.5 ± 79.48%; in experiment [2] (5 hr vs 0 hr), 75 ± 82.15 %; in experiment [2] (24 hr vs 0 hr), −16.66 ± 25.81 %.
